Measured values as given in ChEMBL document CHEMBL1201862, “PubChem BioAssay data set” (2004).
Calls of active or inactive are those of the source.

Key:
P388/ADR = test: cells; type: functional; conditions: Mus musculus
SN12K1 = test: cells; type: functional; conditions: Homo sapiens
P388 = test: cells; type: functional; conditions: Mus musculus
Caspase-3 = target: T1, Caspase-3 (Homo sapiens, UniProt P42574); type: functional;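 further: Dose-response selectivity test against caspase-3 for candidate inhibitors of sentrin-specific proteases (SENPs)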
T1 sequence (P42574 whole entry): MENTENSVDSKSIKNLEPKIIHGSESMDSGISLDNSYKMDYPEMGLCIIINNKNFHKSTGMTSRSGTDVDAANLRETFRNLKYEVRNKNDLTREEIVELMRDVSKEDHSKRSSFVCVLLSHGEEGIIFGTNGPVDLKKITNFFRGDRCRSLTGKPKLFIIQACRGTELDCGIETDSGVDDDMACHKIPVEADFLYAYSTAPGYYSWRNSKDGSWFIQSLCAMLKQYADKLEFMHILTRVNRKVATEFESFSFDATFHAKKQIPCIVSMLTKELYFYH

[1] = target: T2, Sentrin-specific protease 7 (Homo sapiens, UniProt Q9BQF6); type: functional;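 further: Luminescence-based dose-response confirmation of ultra-high-throughput screening hits, measuring inhibition of SENP7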
T2 sequence (Q9BQF6 whole entry): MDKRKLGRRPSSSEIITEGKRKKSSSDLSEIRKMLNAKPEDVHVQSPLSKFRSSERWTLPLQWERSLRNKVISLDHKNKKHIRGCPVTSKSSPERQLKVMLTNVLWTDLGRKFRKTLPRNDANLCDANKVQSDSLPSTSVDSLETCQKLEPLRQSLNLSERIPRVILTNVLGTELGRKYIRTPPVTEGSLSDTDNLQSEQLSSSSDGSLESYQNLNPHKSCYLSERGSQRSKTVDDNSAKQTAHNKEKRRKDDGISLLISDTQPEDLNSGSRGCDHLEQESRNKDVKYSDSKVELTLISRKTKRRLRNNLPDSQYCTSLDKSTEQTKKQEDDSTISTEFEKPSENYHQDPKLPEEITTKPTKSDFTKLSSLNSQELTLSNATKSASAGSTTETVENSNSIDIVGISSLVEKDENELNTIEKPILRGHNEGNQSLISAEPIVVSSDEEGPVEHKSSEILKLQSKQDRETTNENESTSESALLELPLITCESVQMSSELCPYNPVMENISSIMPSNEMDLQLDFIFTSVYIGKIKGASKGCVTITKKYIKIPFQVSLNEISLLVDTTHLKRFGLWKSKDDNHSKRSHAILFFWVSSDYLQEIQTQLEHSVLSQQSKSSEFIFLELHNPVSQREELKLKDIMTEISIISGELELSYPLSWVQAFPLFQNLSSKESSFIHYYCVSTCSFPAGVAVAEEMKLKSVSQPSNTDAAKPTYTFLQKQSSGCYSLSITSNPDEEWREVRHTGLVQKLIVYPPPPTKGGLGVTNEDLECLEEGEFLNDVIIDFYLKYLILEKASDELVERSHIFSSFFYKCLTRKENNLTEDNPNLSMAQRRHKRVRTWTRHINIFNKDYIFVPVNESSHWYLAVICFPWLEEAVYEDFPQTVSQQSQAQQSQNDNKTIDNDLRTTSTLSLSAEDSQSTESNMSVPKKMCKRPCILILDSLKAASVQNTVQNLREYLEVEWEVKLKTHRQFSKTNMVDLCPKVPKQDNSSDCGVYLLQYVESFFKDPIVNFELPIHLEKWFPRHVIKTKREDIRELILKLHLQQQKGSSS

[2] = target: T3, Sentrin-specific protease 6 (Homo sapiens, UniProt Q9GZR1); type: functional;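 further: Luminescence-based dose-response confirmatory assay of SENP6 inhibition, following up an ultra-high-throughput screen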
T3 sequence (Q9GZR1 whole entry): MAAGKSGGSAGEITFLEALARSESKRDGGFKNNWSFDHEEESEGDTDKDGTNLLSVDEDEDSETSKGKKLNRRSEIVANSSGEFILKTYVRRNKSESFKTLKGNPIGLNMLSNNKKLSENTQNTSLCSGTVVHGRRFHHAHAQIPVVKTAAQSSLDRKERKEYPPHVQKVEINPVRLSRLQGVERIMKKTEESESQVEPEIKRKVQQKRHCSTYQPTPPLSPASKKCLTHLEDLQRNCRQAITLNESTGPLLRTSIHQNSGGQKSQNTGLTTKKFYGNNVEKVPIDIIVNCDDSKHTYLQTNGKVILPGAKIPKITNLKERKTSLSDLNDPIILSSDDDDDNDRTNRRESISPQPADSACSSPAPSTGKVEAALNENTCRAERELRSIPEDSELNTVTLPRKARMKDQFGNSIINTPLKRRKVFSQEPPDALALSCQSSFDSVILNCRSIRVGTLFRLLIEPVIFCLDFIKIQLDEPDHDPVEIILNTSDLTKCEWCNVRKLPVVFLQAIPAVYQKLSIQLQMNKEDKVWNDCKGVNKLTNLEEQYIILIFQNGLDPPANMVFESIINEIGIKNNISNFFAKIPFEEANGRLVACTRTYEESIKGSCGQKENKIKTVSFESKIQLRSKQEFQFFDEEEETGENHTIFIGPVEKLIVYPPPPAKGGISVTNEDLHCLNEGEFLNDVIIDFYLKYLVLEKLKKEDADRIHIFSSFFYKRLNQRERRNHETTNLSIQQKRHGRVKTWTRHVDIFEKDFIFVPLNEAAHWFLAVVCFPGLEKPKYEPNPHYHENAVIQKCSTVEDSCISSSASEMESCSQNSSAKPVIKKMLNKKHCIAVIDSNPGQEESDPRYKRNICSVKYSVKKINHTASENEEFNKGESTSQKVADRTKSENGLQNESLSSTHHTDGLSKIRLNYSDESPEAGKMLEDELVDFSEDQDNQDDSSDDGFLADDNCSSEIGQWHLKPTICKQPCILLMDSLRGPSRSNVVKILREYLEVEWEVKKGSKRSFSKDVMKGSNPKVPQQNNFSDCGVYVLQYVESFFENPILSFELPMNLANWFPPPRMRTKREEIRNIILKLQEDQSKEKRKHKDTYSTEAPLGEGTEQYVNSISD

[3] = target: T4, Sentrin-specific protease 8 (Homo sapiens, UniProt Q96LD8); type: functional;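 further: luminescence read-out of SENP8 inhibition, dose-response confirmation following an ultra-high-throughput screen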
T4 sequence (Q96LD8 whole entry): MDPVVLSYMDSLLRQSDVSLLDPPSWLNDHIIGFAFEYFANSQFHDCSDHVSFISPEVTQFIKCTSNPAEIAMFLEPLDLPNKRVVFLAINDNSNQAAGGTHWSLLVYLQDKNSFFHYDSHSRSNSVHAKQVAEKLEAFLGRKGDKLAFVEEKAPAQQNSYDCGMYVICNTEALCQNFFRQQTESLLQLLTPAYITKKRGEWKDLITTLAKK

Paired box protein Pax-8 = Paired box protein Pax-8 (Homo sapiens, UniProt Q06710); test: PAX8 transcriptional activity inhibition in RMG-I – RMG-I cells, luciferase, cherry-pick, dose response (AID 687027); type: functional, cell-based;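 further: luciferase reporter driven by Pax8 target thyroperoxidase promoter measured by SteadyGlo luminescence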
Sequence of Paired box protein Pax-8 (Q06710 whole entry): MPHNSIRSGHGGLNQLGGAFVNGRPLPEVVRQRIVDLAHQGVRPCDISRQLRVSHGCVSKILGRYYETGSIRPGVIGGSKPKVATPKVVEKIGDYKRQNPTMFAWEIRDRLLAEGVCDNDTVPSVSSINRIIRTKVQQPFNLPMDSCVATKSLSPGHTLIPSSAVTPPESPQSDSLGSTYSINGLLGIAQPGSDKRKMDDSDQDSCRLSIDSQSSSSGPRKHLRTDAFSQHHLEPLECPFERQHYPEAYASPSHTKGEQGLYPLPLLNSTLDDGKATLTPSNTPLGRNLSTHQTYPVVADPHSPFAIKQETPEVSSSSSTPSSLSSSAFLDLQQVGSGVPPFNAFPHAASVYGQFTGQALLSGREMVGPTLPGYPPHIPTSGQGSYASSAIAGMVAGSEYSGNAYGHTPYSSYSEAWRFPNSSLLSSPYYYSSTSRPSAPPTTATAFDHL

[4] = OVCAR-3 cell viability loss – plate reader, dry powder samples, PAX8 inhibitor project, dose response (AID 743044); type: functional, cell-based
[5] = IGROV1 cell killing – plate reader, dry powder samples, PAX8 inhibitor project, dose response (AID 743043); type: functional, cell-based; conditions: IGROV-1
[6] = general cell-killing toxicity readout – plate reader, dry powder samples, cytotoxicity control for PAX8 inhibitor project, dose response (AID 743021); type: functional, cell-based
[7] = OVCAR8 cell viability loss – plate reader, dry powder samples, PAX8 project, dose response (AID 743197); type: functional, cell-based; conditions: OVCAR-8
[8] = test system: Streptococcus sp. 'group A'; test: Streptococcus pyogenes SK(-)GAS viability under kanamycin – luminescence, BacTiterGlo, confirmation, counter-screen for streptokinase expression inhibitor project, dose response (AID 1900); type: functional, organism-based
Streptokinase A = target: T5, Streptokinase A (Streptococcus pyogenes serotype M1, UniProt P10520); test: viability-normalized secreted streptokinase activity reduction – plasminogen activation absorbance, OD405, dose response (AID 1914); type: functional, Streptococcus pyogenes M1 GAS;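 further: secreted streptokinase activity via plasminogen activation per viability signal from cell pellet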
T5 sequence (P10520 whole entry): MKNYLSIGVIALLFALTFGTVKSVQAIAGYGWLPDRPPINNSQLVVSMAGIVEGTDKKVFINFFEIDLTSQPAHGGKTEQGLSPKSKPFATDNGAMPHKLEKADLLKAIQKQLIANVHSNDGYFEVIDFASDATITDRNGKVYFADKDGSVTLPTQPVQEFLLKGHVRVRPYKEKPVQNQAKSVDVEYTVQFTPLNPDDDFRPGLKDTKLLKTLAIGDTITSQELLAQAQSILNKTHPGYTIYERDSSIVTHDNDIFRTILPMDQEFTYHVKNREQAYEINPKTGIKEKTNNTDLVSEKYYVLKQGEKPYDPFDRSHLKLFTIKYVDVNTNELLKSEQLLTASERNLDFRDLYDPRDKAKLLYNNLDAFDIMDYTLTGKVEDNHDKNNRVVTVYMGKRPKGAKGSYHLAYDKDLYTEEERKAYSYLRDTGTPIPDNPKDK

Streptococcus = test: GAS UMAA2166 growth inhibition – luminescence, BacTiterGlo, counter-screen for streptokinase expression inhibitor project, dose response (AID 1915); type: functional, organism-based;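 further: potency for reduction of bacterial viability or growth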
[9] = target: SWI/SNF-related matrix-associated actin-dependent regulator of chromatin subfamily A member 2 (Homo sapiens, UniProt P51531); test: Luminescence-based cell-based high throughput dose response assay to identify activators of the function of SWI/SNF related, matrix associated, actin dependent regulator of chromatin, subfamily a, member 2 (SMARCA2, BRM).; type: functional
Sequence of SWI/SNF-related matrix-associated actin-dependent regulator of chromatin subfamily A member 2 (P51531 whole entry): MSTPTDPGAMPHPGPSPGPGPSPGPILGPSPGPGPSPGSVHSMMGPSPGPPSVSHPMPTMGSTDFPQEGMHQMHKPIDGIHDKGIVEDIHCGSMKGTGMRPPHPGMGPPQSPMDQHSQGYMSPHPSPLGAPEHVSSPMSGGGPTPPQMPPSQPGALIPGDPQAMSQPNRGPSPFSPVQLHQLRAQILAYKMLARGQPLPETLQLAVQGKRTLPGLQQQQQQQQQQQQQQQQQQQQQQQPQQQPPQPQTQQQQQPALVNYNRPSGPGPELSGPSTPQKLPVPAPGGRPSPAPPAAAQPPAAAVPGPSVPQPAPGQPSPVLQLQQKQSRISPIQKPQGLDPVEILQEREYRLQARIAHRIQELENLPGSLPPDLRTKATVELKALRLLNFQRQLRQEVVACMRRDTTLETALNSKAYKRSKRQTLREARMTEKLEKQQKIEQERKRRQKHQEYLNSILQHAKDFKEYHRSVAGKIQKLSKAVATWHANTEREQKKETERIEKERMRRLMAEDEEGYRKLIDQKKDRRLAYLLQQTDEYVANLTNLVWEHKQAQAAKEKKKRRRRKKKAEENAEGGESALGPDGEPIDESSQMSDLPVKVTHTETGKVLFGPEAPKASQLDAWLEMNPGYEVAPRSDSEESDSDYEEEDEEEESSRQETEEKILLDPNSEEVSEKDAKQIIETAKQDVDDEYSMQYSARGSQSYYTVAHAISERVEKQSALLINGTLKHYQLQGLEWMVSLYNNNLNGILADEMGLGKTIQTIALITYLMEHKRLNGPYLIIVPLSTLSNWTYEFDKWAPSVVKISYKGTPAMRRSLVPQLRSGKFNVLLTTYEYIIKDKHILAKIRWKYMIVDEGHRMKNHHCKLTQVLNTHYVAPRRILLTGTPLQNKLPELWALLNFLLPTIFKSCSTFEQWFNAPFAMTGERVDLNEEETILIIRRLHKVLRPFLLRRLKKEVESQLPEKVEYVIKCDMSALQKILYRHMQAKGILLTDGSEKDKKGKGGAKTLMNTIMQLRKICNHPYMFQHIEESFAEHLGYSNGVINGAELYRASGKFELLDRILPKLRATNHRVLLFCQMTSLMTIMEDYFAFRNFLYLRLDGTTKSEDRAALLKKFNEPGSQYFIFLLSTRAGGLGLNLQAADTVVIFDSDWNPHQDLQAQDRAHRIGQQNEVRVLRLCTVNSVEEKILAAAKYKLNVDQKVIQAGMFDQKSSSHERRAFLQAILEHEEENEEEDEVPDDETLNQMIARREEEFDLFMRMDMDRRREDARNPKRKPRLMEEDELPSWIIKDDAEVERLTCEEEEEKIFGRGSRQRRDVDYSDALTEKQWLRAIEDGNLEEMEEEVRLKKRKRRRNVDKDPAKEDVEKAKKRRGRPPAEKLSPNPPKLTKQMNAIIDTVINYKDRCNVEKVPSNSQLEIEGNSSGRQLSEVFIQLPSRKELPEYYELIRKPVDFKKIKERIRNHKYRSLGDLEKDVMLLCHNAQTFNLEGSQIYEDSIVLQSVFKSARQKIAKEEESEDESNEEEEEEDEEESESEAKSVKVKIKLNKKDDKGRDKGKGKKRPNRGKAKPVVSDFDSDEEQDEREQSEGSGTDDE

[10] = Counterscreen for activators of the function of SWI/SNF related, matrix associated, actin dependent regulator of chromatin, subfamily a, member 2 (SMARCA2, BRM): Luminescence-based cell-based high throughput dose response assay to identify non-selective compounds using the VP16 reporter assay.; type: functional
[11] = target: T6, DNA repair and recombination protein RAD54-like (Homo sapiens, UniProt Q92698); test: RAD54 Holliday junction migration blockers – biochemical, fluorescence, cherry-picked samples, dose series, confirmation (AID 651657); type: functional
T6 sequence (Q92698 whole entry): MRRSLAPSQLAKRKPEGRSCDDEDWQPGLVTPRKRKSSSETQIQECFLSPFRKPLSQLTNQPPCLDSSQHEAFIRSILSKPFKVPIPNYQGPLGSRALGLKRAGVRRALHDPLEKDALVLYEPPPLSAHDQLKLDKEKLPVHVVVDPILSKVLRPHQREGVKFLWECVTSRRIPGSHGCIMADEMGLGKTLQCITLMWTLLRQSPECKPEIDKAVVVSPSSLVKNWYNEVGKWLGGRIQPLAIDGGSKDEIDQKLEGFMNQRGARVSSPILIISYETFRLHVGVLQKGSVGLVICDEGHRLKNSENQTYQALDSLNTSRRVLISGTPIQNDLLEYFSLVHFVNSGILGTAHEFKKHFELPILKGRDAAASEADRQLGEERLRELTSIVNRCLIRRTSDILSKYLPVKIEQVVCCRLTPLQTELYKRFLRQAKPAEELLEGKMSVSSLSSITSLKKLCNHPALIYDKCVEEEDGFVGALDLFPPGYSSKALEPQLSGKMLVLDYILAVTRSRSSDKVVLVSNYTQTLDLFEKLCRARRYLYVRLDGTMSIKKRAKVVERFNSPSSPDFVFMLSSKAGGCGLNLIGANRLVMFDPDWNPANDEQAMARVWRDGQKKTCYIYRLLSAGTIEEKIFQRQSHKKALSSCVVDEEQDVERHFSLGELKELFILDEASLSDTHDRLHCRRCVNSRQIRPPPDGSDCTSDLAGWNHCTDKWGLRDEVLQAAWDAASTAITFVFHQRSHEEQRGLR

[12] = blockers of HIV-1 ZM109 envelope-driven cell-cell fusion – HeLa effector, CEM target cells, luciferase, cherry-pick, dose response (AID 652058); type: functional, cell-based;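 further: luciferase signal from HIV-1 Env mediated cell-cell fusion of effector and target cells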

## CCCCS(=O)(=O)Nc1ccc(Nc2c3ccccc3nc3ccccc23)c(OC)c1
P388/ADR
  GI50: 255 nM (active)
SN12K1
  GI50: 1.26 µM (inactive)
P388
  GI50: < 0.01 µM (active)

## Cc1c(NC(=O)c2ccccc2N)cccc1C(=O)O
Caspase-3
  IC50: 38.1 µM (active)
[1]
  IC50: 2.73 µM (active)
[2]
  IC50: 9.43 µM (active)
[3]
  IC50: 11.4 µM (active)

## OC(CBr)C(O)C(O)C(O)CBr (centres undefined)
P388/ADR
  GI50: 5890 nM (inactive)
SN12K1
  GI50: > 100 µM (inactive)
P388
  GI50: 3.53 µM (inactive)

## Cc1ccc(S(=O)(=O)Nc2ccc3c(c2)C(=O)N([C@@H](C)CO)C[C@@H](C)[C@H](CN(C)Cc2ccc(C(F)(F)F)cc2)OCCCC[C@@H](C)O3)cc1
Paired box protein Pax-8
  AC50: 8.98 µM (active)
[4]
  AC50: 17.9 µM (active)
[5]
  AC50: 36.9 µM (active)
[6]
  AC50: 43 µM (active)
[7]
  AC50: > 70 µM (inactive)

## Cc1cccc(Nc2nc(-c3ccc(F)c(C)c3)cs2)n1
[8]
  EC50: 8.77 µM (active)
Streptokinase A
  EC50: > 50 µM (not active)
Streptococcus
  EC50: 26.7 µM (active)
Caspase-3
  IC50: 41.4 µM (active)
[1]
  IC50: 5.75 µM (active)
[2]
  IC50: 24 µM (active)
[3]
  IC50: 41.5 µM (active)

## CC[C@@]1(O)CC(OC2CC(N3CCOCC3)C(O)C(C)O2)c2c(O)c3c(c(O)c2[C@H]1O)C(=O)c1cccc(O)c1C3=O (some centres undefined)
P388/ADR
  GI50: 0.00975 nM (active)
P388
  GI50: 0.00366 µM (active)

## Cc1n[nH]c(SCC(=O)N2CCc3ccccc32)n1
[9]
  EC50: > 91 µM (inactive)
[10]
  EC50: > 91 µM (inactive)

## Cc1cc(O)c2c(c1)C(=O)c1c(c(O)cc(O)c1-c1c(O)cc(O)c3c1C(=O)c1cc(C)cc(O)c1C3=O)C2=O [SKYRIN]
P388/ADR
  GI50: 17900 nM (inactive)
SN12K1
  GI50: 9.23 µM (inactive)
P388
  GI50: 8.95 µM (inactive)

## CCOC(=O)c1cnc2ccc(C)cc2c1NCCN1CCOCC1
[11]
  AC50: 98.8 µM (active)

## O=C(c1cccs1)c1coc2ccc(O)cc12
Caspase-3
  IC50: 13.7 µM (active)
[1]
  IC50: 7.28 µM (active)
[2]
  IC50: 10.6 µM (active)
[3]
  IC50: > 100 µM (inactive)

## Cc1c(/C=C/C(=O)c2ccccc2O)cnn1C
Caspase-3
  IC50: 15.3 µM (active)
[1]
  IC50: 4.84 µM (active)
[2]
  IC50: 14.2 µM (active)
[3]
  IC50: 25.2 µM (active)

## O=C(Nc1ccc(F)cc1)Nc1ccc2c(c1)[C@@H]1C[C@H](CC(=O)N3CCCCC3)O[C@@H](CO)[C@@H]1O2
[12]
  AC50: 35 µM (active)

## Clc1ccc(CO/N=C2\CCCc3nonc32)cc1
[9]
  EC50: > 91.2 µM (inactive)
[10]
  EC50: > 91.2 µM (inactive)

## Nc1nc(O)c2ncn(C3OC(CO)C(O)C3O)c2n1 (centres undefined)
P388/ADR
  GI50: 2330 nM (inactive)
SN12K1
  GI50: 63.2 µM (inactive)
P388
  GI50: 9.73 µM (inactive)
